Where a name gives a salt, the structure may show the parent alone.
What was measured:
[1] = Dissolution measurement assay (apparent solubility) in FaSSIF, pH 6.5; type: physicochemical; parameters: AUC/90 min / AUC/80 min: concentration or dose not given beside the values
[2] = Dissolution rate measurement in sink conditions, flow through cell system, FaSSIF, 37° C.; type: physicochemical; details: sink condition in FaSSIF; for Initial Dissolution Rate: initial slope of accumulated % solubilized vs time, 0 to 10 minutes
Experimental: The temperature of the apparatus was set to 37° C. The amount of powder added into the cell depends on drug load of the powder: The exact amount of powder was calculated from results obtained from drug load analysis of the powders.
Typically, 3.5 to 7 mg PKI was added into the flow through cell and a flow rate between 8 and 16 ml medium/min (preferably about 8 ml medium/min) was pumped through the powder. One ml samples of the medium passing through the cell were collected at predetermined times. […] Samples were taken after 0, 0.5, 1, 1.5, 2, 3, 4, 5, 6, 7, 8, 9, 10, 15, 20, 25, 30, 35 and 40 min from the moment the medium comes out from the flow through cell. The accumulated % solubilized of the amount of active substance added into the flow through cell was calculated and plotted against time (min). The initial slope (“initial dissolution rate”) of the graph was estimated, as measured during 0 to 10 minutes, and taken as the dissolution rate of the material in sink condition at 37° C. in the given dissolution medium.

CS(=O)(=O)CCNCc1ccc(-c2ccc3ncnc(Nc4ccc(OCc5cccc(F)c5)c(Cl)c4)c3c2)o1 [Exp 110, lapatinib base]
Conc (mg/L) 5 min ([1]; concentration of lapatinib after 5 min dissolution, FaSSIF pH 6.5): 2.9 mg/L
Conc (mg/L) 30 min ([1]; concentration of lapatinib after 30 min dissolution, FaSSIF pH 6.5): 6.0 mg/L
Conc (mg/L) 90 min ([1]; concentration of lapatinib after 90 min dissolution, FaSSIF pH 6.5): 6.5 mg/L
% solubilized 30 min. ([1]; lapatinib, 30 min dissolution, FaSSIF pH 6.5): 0.3%
AUC/90 min ([1]; lapatinib, during 90 min dissolution, FaSSIF pH 6.5): 494 Mg/min/L

COc1cc2ncnc(Nc3ccc(F)c(Cl)c3)c2cc1OCCCN1CCOCC1 [Exp 540, gefitinib]
Initial Dissolution Rate [2]: 2.2

CNC(=O)c1cc(Oc2ccc(NC(=O)Nc3ccc(Cl)c(C(F)(F)F)c3)cc2)ccn1 [Exp 142, sorafenib tosylate]
Conc (mg/L) 3 min ([1]; pH 6.5): 59.1 mg/L
% solubilized 40 min. ([1]; 40 min, pH 6.5): 34.4%
Conc (mg/L) 40 min ([1]; 40 min, pH 6.5): 343.5 mg/L
Conc (mg/L) 80 min ([1]; pH 6.5): 311.5 mg/L

Cc1ccc(Nc2nccc(N(C)c3ccc4c(C)n(C)nc4c3)n2)cc1S(N)(=O)=O [Exp 84, pazopanib]
Conc (mg/L) 5 min ([1]; 5 min, pH 6.5): 46.2 mg/L
% solubilized 30 min. ([1]; 30 min, pH 6.5): 2.4%
Conc (mg/L) 30 min ([1]; 30 min, pH 6.5): 24.4 mg/L
Conc (mg/L) 90 min ([1]; 90 min, pH 6.5): 15.0 mg/L

CCCS(=O)(=O)Nc1ccc(F)c(C(=O)c2c[nH]c3ncc(-c4ccc(Cl)cc4)cc23)c1F [Exp 164, vemurafenib]
Conc (mg/L) 3 min ([1]; pH 6.5): 0.3 mg/L
% solubilized 40 min. ([1]; 40 min, pH 6.5): 0.1%
Conc (mg/L) 40 min ([1]; 40 min, pH 6.5): 0.3 mg/L
Conc (mg/L) 80 min ([1]; pH 6.5): 0.4 mg/L

CNC(=O)c1ccccc1Sc1ccc2c(/C=C/c3ccccn3)n[nH]c2c1 [Exp 157, axitinib]
Conc (mg/L) 3 min ([1]; pH 6.5): 0.6 mg/L
Conc (mg/L) 40 min ([1]; 40 min, pH 6.5): 0.6 mg/L
Conc (mg/L) 80 min ([1]; pH 6.5): 0.6 mg/L
% solubilized 40 min. ([1]; axitinib, 40 min dissolution, FaSSIF pH 6.5): 0.1%
AUC/80 min ([1]; axitinib, during 80 min dissolution, FaSSIF pH 6.5): 47 Mg/min/L

Cc1cn(-c2cc(NC(=O)c3ccc(C)c(Nc4nccc(-c5cccnc5)n4)c3)cc(C(F)(F)F)c2)cn1 [Exp 500, nilotinib HCl]
Initial Dissolution Rate [2]: 0.27

CNC(=O)c1cc(Oc2ccc(NC(=O)Nc3ccc(Cl)c(C(F)(F)F)c3)cc2)ccn1.Cc1ccc(S(=O)(=O)O)cc1 [Experiment 560]
Accumulated % of solubilized of remaining active substance at a given time (min) ([2]; 0 min): 0.2%
Accumulated % of solubilized of remaining active substance at a given time (min) ([2]; 0.5 min): 0.4%
Accumulated % of solubilized of remaining active substance at a given time (min) ([2]; 1 min): 0.7%
Accumulated % of solubilized of remaining active substance at a given time (min) ([2]; 1.5 min): 1.0%
Accumulated % of solubilized of remaining active substance at a given time (min) ([2]; 2 min): 1.3%
Accumulated % of solubilized of remaining active substance at a given time (min) ([2]; 3 min): 1.8%
Accumulated % of solubilized of remaining active substance at a given time (min) ([2]; 4 min): 2.2%
Accumulated % of solubilized of remaining active substance at a given time (min) ([2]; 5 min): 2.6%
Accumulated % of solubilized of remaining active substance at a given time (min) ([2]; 6 min): 3.0%
Accumulated % of solubilized of remaining active substance at a given time (min) ([2]; 7 min): 3.4%
Accumulated % of solubilized of remaining active substance at a given time (min) ([2]; 8 min): 3.8%
Accumulated % of solubilized of remaining active substance at a given time (min) ([2]; 9 min): 4.2%
Accumulated % of solubilized of remaining active substance at a given time (min) ([2]; 10 min): 4.6%
Accumulated % of solubilized of remaining active substance at a given time (min) ([2]; 20 min): 8.8%
Accumulated % of solubilized of remaining active substance at a given time (min) ([2]; 30 min): 12.6%
Accumulated % of solubilized of remaining active substance at a given time (min) ([2]; 40 min): 16.4%

Cc1cn(-c2cc(NC(=O)c3ccc(C)c(Nc4nccc(-c5cccnc5)n4)c3)cc(C(F)(F)F)c2)cn1 [Exp 3, Nilotinib HCl]
Conc (mg/L) 5 min ([1]; concentration of nilotinib HCl, FaSSIF solution (pH 6.5), 5 minutes dissolution, HCl): 0.2 mg/L
Conc (mg/L) 30 min ([1]; concentration of nilotinib HCl, FaSSIF solution (pH 6.5), 30 minutes dissolution, HCl): 0.3 mg/L
Conc (mg/L) 90 min ([1]; concentration of nilotinib HCl, FaSSIF solution (pH 6.5), 90 minutes dissolution, HCl): 0.2 mg/L
% solubilized 30 min. ([1]; nilotinib HCl, FaSSIF solution (pH 6.5), 30 minutes dissolution, HCl): 0.03%
AUC/90 min Mg/min/L ([1]; nilotinib HCl, FaSSIF solution (pH 6.5), Area Under the Curve during 90 minutes dissolution, HCl): 21.8 Mg/min/L

CNC(=O)c1cc(Oc2ccc(NC(=O)Nc3ccc(Cl)c(C(F)(F)F)c3)cc2)ccn1 [Exp 560, sorafenib tosylate]
Initial Dissolution Rate [2]: 0.47

C[C@@H](Oc1cc(-c2cnn(C3CCNCC3)c2)cnc1N)c1c(Cl)ccc(F)c1Cl [Exp 570, crizotinib]
Initial Dissolution Rate [2]: 6.6
